Measured values published in patent US6749864B2, “Stabilized pharmaceutical composition” (Takeda Chemical Industries, Ltd., priority 1986, dated 2004).

Columns and labels:
[1] = Storage of granules of different benzimidazole compounds with heavy magnesium carbonate or lactose, changes in appearance (Experimental Example 2); format: physicochemical; set-up: key to Changes in appearance after 1 week at 50° C. and 75% RH: −: No changes; ++: Severely; settings: for Changes in appearance after 1 week at 50° C. and 75% RH: granules as in Example 5; for stability of the pharmaceutical compositions of the invention: granules with heavy magnesium carbonate, 50° C. and 75% RH, 1 week
Description: Granules were produced in the same manner as in Example 5 except that the compound (A), the compound (C), the compound (D), omeprazole or timoprazole was used instead of the compound (B). […] As a control to each composition, granules were also produced in the same manner except that lactose was used instead of heavy magnesium carbonate and stored under the same conditions.

[2] = Control: lactose instead of heavy magnesium carbonate
[3] = Invention: additive heavy magnesium carbonate

Row | Changes in appearance after 1 week at 50° C. and 75% RH [1, 2] | Changes in appearance after 1 week at 50° C. and 75% RH [1, 3] | stability of the pharmaceutical compositions of the invention [1] | melting point | Compound
1 | ++ | − | stable |  | COc1ccc2nc([S+]([O-])Cc3ncc(C)c(OC)c3C)[nH]c2c1 (stereo not shown) [Omeprazole, 5-Methoxy-2-[(4-methoxy-3,5-dimethyl-2-pyridyl)methylsulfinyl]benzimidazole]
2 | ++ | − | stable |  | [O-][S+](Cc1ccccn1)c1nc2ccccc2[nH]1 (stereo not shown) [Timoprazole, 2-[(2-Pyridyl)methylsulfinyl]benzimidazole]
3 | ++ | − | stable | 161 to 163 °C (dec.) | Cc1c(OCC(F)(F)C(F)(F)F)ccnc1C[S+]([O-])c1nc2ccccc2[nH]1 (stereo not shown) [Compound (A), 2-[[3-methyl-4-(2,2,3,3,3-pentafluoropropoxy)-2-pyridyl]methyl-sulfinyl]benzimidazole]
